Data as given in patent US20040077888A1, “Polyamine-mediated transfection” (The Regents of the University of California, priority 2002, published 2004).

Key:
NIH 3T3 cells [1] = experiment: Transfection of NIH 3T3 cells, luciferase assay; assay type: cell-based; settings: for luciferase expression: FIG. 4, vs dimyristoyl analogs with the same DNA-binding domain
Procedure: (§1) Cell Culture. CHO cells (ATCC, Rockville, Md.) were cultured in 75 cm^2 cell culture flasks with HAMS F12 media containing 10% bovine calf serum. NIH 3T3 cells were grown in Dulbecco's modified Eagle's medium with 10% fetal calf serum. The cells were maintained at 37° C. in a 5% CO2 environment. Twenty-four hours prior to transfection, cells were split into 24 well plates at 60% confluence.
(§2) Transfection of CHO and NIH 3T3 Cells. Liposomal suspensions of the polyamines were diluted with Dulbecco's modified essential media (serum free) to obtain the desired concentration. The suspensions were vortex mixed followed by addition of an appropriate quantity of DNA to yield lipoplex preparations at the desired N/P ratio. […] Immediately prior to transfection, the cells were prepared by aspiration of the growth media. The lipoplex preparation was added to the cells (200 μL, 1 μg DNA/well). After incubation for 2 hours, the lipoplex solution was aspirated and replaced with growth media (500 μL),
(§3) Luciferase Assay. Cells were lysed 24 hours after lipoplex administration by adding 200 μL lysis buffer. Luciferase activity was assayed using the Enhanced Luciferase Assay Kit and a Moonlight 2010 luminometer (Pharmingen, San Diego, Calif.). Luciferase activity was measured as Relative Light Units (RLUs) from an aliquot of the cell lysate over a 10 sec. period. A luciferase standard curve was produced using serial dilutions of purified firefly luciferase (Pharmingen, San Diego, Calif.). Using the standard curve, relative light units are converted to μg of luciferase per μL of sample assayed, and expressed as μg luciferase per 60,000 cells. To ensure luminometer consistency, the instrument is calibrated with a luminometer light standard containing ^14C-toluene (Pharmingen, San Diego, Calif.).

pCMV.FOX.Luc-2 = experiment: Ethidium bromide displacement assay (DNA condensation); assay type: binding; settings: polyamine:cholesterol liposomes, FIGS. 1A-C
Procedure: The assay set forth in FIGS. 1A-C is based on a decrease in fluorescence that occurs when ethidium bromide is displaced from DNA by adding cationic liposomes. The lipoplexes were formed by adding a DNA-ethidium bromide solution to a solution containing variable amounts of polyamine:cholesterol liposomes. The lipoplexes were then treated with an equal volume of either water or a TRIS buffered solution at various pHs. The resulting fluorescence was then measured to determine the relative concentration of intercalated ethidium bromide.
Ethidium Bromide Displacement Assay. Ethidium bromide (153 μL of a 0.01% solution) was added to 96 μg of pCMV.FOX.Luc-2. This DNA-ethidium bromide solution was diluted to a final volume of 6 mL. Different concentrations of the polyamine liposomes were added to each well of a 96 well microplate, to which 50 μL of the DNA-ethidium bromide solution was added to obtain a final volume of 100 μL. After 5 min. the lipoplexes were treated with 100 μL of water or buffer and gently shaken. The resulting fluorescence at 250 nm excitation and 610 nm emission was measured using a SpectraMax XS microplate fluorometer (Molecular Devices, Oregon).

CHO cells [2] = experiment: Transfection of CHO cells, luciferase assay; assay type: cell-based; settings: for luciferase expression: FIG. 3, vs dimyristoyl analogs with the same DNA-binding domain; for transfection activity compared with LipofectAMINE PLUS and TransFast: two cell lines (CHO, NIH-3T3), luciferase and GFP vector
Procedure: as §1, §2, §3

CHO cells [3] = experiment: GFP-annexin V flow cytometric assay in CHO cells; assay type: cell-based; settings: for GFP expression: FIG. 5, polyamines vs dimyristoyl analogs with the same DNA-binding domain
Procedure: Cell Culture. CHO cells (ATCC, Rockville, Md.) were cultured in 75 cm^2 cell culture flasks with HAMS F12 media containing 10% bovine calf serum. […] The cells were maintained at 37° C. in a 5% CO2 environment. Twenty-four hours prior to transfection, cells were split into 24 well plates at 60% confluence.
Flow Cytometry. Cells transfected with the plasmid vector pNDeGFP were trypsinized 24 h after transfection and resuspended in Dulbecco's phosphate buffered saline (DPBS). The resuspended cells were incubated 30 min. in a solution (1:40 dilution of commercial stock) containing annexin V conjugated to biotin (CalTag, Burlingame, Calif.). After a second DPBS wash, the cells were resuspended 30 min. in a solution (1:400 dilution of commercial stock) of the Tri-color fluorophore conjugated to streptavidin (CalTag, Burlingame, Calif.). After a final DPBS wash, the cells were resuspended in 500 μL DPBS. The cells were then analyzed using a dual channel FACScan (Becton Dickinson, San Jose, Calif.) with a 15 mW, 488 nm argon laser.
Using standard techniques, FACScan gating was set with control cells that were prepared simultaneously with the transfected cells. […] GFP fluorescence was measured with a 530/30 band pass filter on channel FL1. The Tri-color fluorescence was measured with a 675 nm band pass filter on channel FL2. Transfection and mean expression were determined using the FL1 autofluorescence signal from control cells, compared to the transfected cell population.
To further determine the influence of the chemical linker on cytotoxicity, flow cytometry was used to measure cell viability. Using a GFP-annexin V flow cytometric assay, cytotoxicity was simultaneously evaluated in transfected and total cell populations.

NIH 3T3 cells [4] = experiment: GFP-annexin V flow cytometric assay in NIH 3T3 cells; assay type: cell-based; settings: FIG. 6, polyamines vs dimyristoyl analogs with the same DNA-binding domain
Procedure: as §1, §2
Flow Cytometry. […] The cells were then analyzed using a dual channel FACScan (Becton Dickinson, San Jose, Calif.) with a 15 mW, 488 nm argon laser.
Using standard techniques, FACScan gating was set with control cells that were prepared simultaneously with the transfected cells. […] GFP fluorescence was measured with a 530/30 band pass filter on channel FL1. The Tri-color fluorescence was measured with a 675 nm band pass filter on […]. Transfection and mean expression were determined using the FL1 autofluorescence signal from control cells, compared to the transfected cell population.
Actinomycin-D (Sigma, St. Louis, Mo.) was used to treat non-transfected cells 24 hours prior to the assay to induce apoptosis. […] Non-treated cells were analyzed to establish baseline cytotoxicity and background auto-fluorescence. Each condition was transfected in triplicate and ten thousand cells were counted and simultaneously analyzed for GFP (transfection and expression) and Tri-color (annexin V) fluorescence. […]

## CCCCCCCCCCCCCC(=O)OCC(COC(=O)CCCCCCCCCCCCC)(COC(=O)CCNCCN(C)C)COC(=O)CCNCCN(C)C [polyamine 5]
NIH 3T3 cells [1]
  transfection activity among the polyamines: superior to the other polyamines

## CCCCCCCC/C=C\CCCCCCCC(=O)OCC(COC(=O)CCCCCCC/C=C\CCCCCCCC)(COC(=O)CCNCCCCN(C)C)COC(=O)CCNCCCCN(C)C [polyamine 10]
pCMV.FOX.Luc-2
  DNA condensation: condensed DNA with efficiency
CHO cells [2]; CHO cells
  luciferase expression: higher levels
NIH 3T3 cells [1]
  luciferase expression: higher levels
CHO cells [3]
  GFP expression: higher levels
NIH 3T3 cells [4]
  GFP expression: higher levels

## CCCCCCCC/C=C\CCCCCCCC(=O)OCC(COC(=O)CCCCCCC/C=C\CCCCCCCC)(COC(=O)CCNCCN(C)C)COC(=O)CCNCCN(C)C [polyamine 8]
pCMV.FOX.Luc-2
  DNA condensation: condensed DNA with efficiency
CHO cells [2]; CHO cells
  luciferase expression: higher levels
CHO cells [2]
  transfection activity compared with LipofectAMINE PLUS and TransFast: roughly comparable to LipofectAMINE PLUS and TransFast
NIH 3T3 cells [1]
  transfection activity among the polyamines: superior to the other polyamines
  luciferase expression: higher levels
CHO cells [3]
  GFP expression: higher levels
NIH 3T3 cells [4]
  GFP expression: higher levels

## CCCCCCCC/C=C\CCCCCCCC(=O)OCC(COC(=O)CCCCCCC/C=C\CCCCCCCC)(COC(=O)CCNCCCN(C)C)COC(=O)CCNCCCN(C)C [polyamine 9]
pCMV.FOX.Luc-2
  DNA condensation: condensed DNA with efficiency
CHO cells [2]; CHO cells
  transfection activity among the polyamines: most active analog
  luciferase expression: higher levels
CHO cells [2]
  transfection activity compared with LipofectAMINE PLUS and TransFast: roughly comparable to LipofectAMINE PLUS and TransFast
NIH 3T3 cells [1]
  luciferase expression: higher levels
CHO cells [3]
  GFP expression: higher levels
CHO cells [3]; FIG. 5 black bars
  population of cells expressing GFP (GFP positive, Annexin V negative): largest population of cells expressing GFP with extremely low cytotoxicity
NIH 3T3 cells [4]
  GFP expression: higher levels
